The record followed here is patent US20160214918A1, “COMPOSITION FOR TREATING METABOLIC SYNDROME AND A PREPARATION METHOD THEREOF” (Kaohsiung Medical University, priority 2015, published 2016).

In one data set the test system is fat cells. Put plainly: cellular toxicity in fat cells. Format: cell-based. As to conditions: FIG. 6A, drug 30 ug/mL.
The subject of the next data set is mature fat cells. Put plainly: glucose consumption rate of fat cells in culture medium. Format: cell-based. Conditions: 24 hours, control group about 20%. An excerpt:
Please refer to FIGS. 6A-6C. FIGS. 6A-6C show the results of the activity of the glucose consumption rate of fat cells in the culture medium. As shown in FIGS. 6A-6C, various compounds containing halogens, such as chlorine, bromine and iodine, can increase the glucose consumption rate of fat cells. Many of the deuterium-containing compounds are new ones in this example. […] Symbol ‘Con’ denotes the Control Group, Symbol ‘5’ denotes a 2Br2H compound, Symbol ‘6’ denotes a 2I2H compound, Symbol ‘Met’ denotes a metformin, Symbol ‘AI’ denotes an AMPK inhibitor, Symbol ‘L’ denotes a low-dose usage of 15 ug/mL, and Symbol ‘H’ denotes a high-dose usage of 30 ug/mL
The activity of the glucose consumption rate of fat cells is taken from the following: A testing drug, 2,3-dideutero-1-(2-iodophenyl)-3-(4-methoxyphenyl)propan-1-one with the concentration 30 ug/mL, was cultured with mature fat cells for 24 hours. It was then tested to determine the change of the glucose concentration in the culture medium.
24 hours after the replacement of a culture media, the glucose consumption rate of the control group was about 20%. After insulin was added, the glucose consumption rate of the cells in the control group upgrades to 30%. With the commercial drug, Pioglitazone of 30 ug/mL, the glucose consumption rate of the cells in the corresponding group increased to 40%.

On to `[2H]C(C(=O)c1ccccc1I)C([2H])c1ccc(OC)cc1` (centres unmarked) [2I1D, 2,3-dideutero-1-(2-iodophenyl)-3-(4-methoxyphenyl)propan-1-one], for which, in the data set on fat cells, the cellular toxicity result is listed as “no visible cellular toxicity”.
As for `COc1ccc(/C=C/C(=O)c2ccccc2I)cc1` [2I2H, (E)-1-(2-iodophenyl)-3-(4-methoxyphenyl)prop-2-en-1-one], the cellular toxicity entry with fat cells is recorded as “no visible cellular toxicity”.
On the same count and under the same terms, next, `COc1ccc(C#CC(=O)c2ccccc2I)cc1` [2I3, 1-(2-iodophenyl)-3-(4-methoxyphenyl)prop-2-yn-1-one]: “significant cellular toxicity”.
For the compound `CCc1ccc(CCOc2ccc(CC3SC(=O)NC3=O)cc2)nc1` (centres unmarked) [Pioglitazone, reference compound], in the data set with mature fat cells (mature fat cells, drug 30 ug/mL), the “glucose consumption rate of the cells” value came out at 40%.
Turning to “insulin: insulin added to fat cells as a positive control”, in the data set on mature fat cells (fat cells, after insulin was added), the “glucose consumption rate of the cells” value turned out to be 30%.
